Consider 35 compounds from patent publication US12528801B2 (Givaudan SA, priority 2019, dated 2026).

Molecules are shown by their SMILES. pEC50: −log10 of the molar value. Where only a bound is given, the exact number is not on record here.

T1 sequence (Q7Z2W7 whole entry): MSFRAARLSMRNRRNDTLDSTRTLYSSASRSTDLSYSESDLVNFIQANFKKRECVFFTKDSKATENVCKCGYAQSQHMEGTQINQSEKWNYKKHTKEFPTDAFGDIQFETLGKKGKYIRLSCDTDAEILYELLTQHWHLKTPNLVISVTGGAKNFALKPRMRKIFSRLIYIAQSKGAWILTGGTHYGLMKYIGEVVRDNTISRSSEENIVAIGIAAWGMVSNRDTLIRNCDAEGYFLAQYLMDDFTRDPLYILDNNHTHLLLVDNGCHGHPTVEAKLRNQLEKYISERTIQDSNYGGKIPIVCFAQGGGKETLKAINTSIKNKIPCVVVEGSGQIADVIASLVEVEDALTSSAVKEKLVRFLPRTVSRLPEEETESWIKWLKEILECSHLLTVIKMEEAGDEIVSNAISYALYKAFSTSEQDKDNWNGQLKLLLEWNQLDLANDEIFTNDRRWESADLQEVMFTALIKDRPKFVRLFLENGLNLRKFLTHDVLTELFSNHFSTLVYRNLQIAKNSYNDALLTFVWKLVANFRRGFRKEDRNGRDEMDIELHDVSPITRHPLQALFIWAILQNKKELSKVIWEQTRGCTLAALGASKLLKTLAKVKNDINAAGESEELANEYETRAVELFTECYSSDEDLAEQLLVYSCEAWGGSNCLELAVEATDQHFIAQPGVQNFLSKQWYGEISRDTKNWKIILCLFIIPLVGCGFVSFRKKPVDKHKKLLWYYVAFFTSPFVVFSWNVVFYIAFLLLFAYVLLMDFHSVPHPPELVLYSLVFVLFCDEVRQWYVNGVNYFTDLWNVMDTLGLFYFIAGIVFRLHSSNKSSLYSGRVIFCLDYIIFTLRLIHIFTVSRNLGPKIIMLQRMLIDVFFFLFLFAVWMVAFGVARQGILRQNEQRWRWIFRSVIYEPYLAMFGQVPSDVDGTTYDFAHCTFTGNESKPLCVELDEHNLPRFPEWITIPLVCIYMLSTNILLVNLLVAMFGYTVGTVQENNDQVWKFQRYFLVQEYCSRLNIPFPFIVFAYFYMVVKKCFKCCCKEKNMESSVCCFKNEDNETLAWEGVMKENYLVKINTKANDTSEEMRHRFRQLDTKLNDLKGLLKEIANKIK

This assay concerns the target T1, hTRPM8 (Homo sapiens, UniProt Q7Z2W7).
T1 construct: expressed in transfected cells
In words: Assay on TRPM8 modulators: calcium imaging (Fluo-4, Flexstation) in HEK293 cell line stably expressing hTRPM8. Type of assay: cell-based. Particulars: HEK293 cells stably expressing hTRPM8; calcium influx, Fluo-4, Flexstation 3; sigmoidal dose-response fit. The method, then: A HEK293 cell line stably expressing hTRPM8 was generated according to Klein of at, (Chem. Senses 36: […], 2011) and receptor activation was monitored by calcium imaging in a Flexstation. For Ca-imaging assays of TRPM8 channel activation, cells were seeded on day 0 at a density of 12000 cells per well in Dulbecco's modified Eagle medium (DMEM) containing 9% foetal bovine serum in black, clear bottom 96-well plates that had been coated with 0.001% polyethyleneimine (molecular weight=60 000, Acros Organics). On day 2, agonists were evaluated via calcium imaging using Fluo-4. Briefly, growth medium was discarded, and the cells were incubated in the dark for 1 h at 37° C. in 50 μL loading buffer consisting of 2.7 μM Fluo-4 AM (Invitrogen) and […] probenecid (Sigma-Aldrich) in DMEM (without serum). After incubation, the plates were washed five times with 100 μL of assay buffer (in mM: 130 NaCl, 5 KCl, 10 HEPES, 2 CaCl2, and 10 glucose, pH7.4.) and further incubated in the dark at room temperature for 30 min. The cells were then washed five times with 100 μL assay buffer and then calcium influx to serial dilutions of inventive compounds were measured in a Flexstation 3 (Molecular Devices). Receptor activation was initiated following addition of 20 μl of a 10-fold concentrated ligand stock solution, which is also prepared in assay buffer. Fluorescence was continuously monitored for 15 seconds prior to ligand addition and for 105 seconds after ligand addition, for a total of 120 seconds. Maximal receptor activation in relation to solvent control and relative to 31.6 μM menthol is determined. Data from serial dilutions were processed with a KNIME workflow to fit a sigmoidal dose-response curve and to extrapolate […].
Take `CSC(C)C(=O)N1CCCCC1c1nc(-c2occc2C)c[nH]1` (centres unmarked) [Compound 29, 1-(2-(4-(3-methylfuran-2-yl)-1H-imidazol-2-yl)piperidin-1-yl)-2-(methylthio)propan-1-one]: the pEC50 (in general, the EC50 on a negative log10 scale, so that one unit is a factor of ten) is 6.52 to 7.30.

Regarding `CSC(C)C(=O)N1CCCCC1c1nc(-c2ccc(CN3CCS(=O)(=O)CC3)cc2)c[nH]1` (centres unmarked) [Compound 30, 1-(2-(4-(4-((1,1-dioxidothiomorpholino)methyl)phenyl)-1H-imidazol-2-yl)piperidin-1-yl)-2-(methylthio)propan-1-one], the pEC50 was 4.46 to 6.00.

For `CSC(C)C(=O)N1CCCCC1c1nc(-c2ccc(C(C)O)cc2)c[nH]1` (centres unmarked) [Compound 31, 1-(2-(4-(4-(1-hydroxyethyl)phenyl)-1H-imidazol-2-yl)piperidin-1-yl)-2-(methylthio)propan-1-one], the pEC50 is 6.52 to 7.30.

Take `CSC(C)C(=O)N1CCCCC1c1nc(-c2ccc(OC(F)F)c(F)c2)c[nH]1` (centres unmarked) [Compound 32, 1-(2-(4-(4-(difluoromethoxy)-3-fluorophenyl)-1H-imidazol-2-yl)piperidin-1-yl)-2-(methylthio)propan-1-one]: the pEC50 was > 7.30.

As for `CSC(C)C(=O)N1CCCCC1c1nc(-c2cscc2C(F)F)c[nH]1` (centres unmarked) [Compound 33], the pEC50 was 6.52 to 7.30.

As for `CSC(C)C(=O)N1CCCCC1c1nc(-c2ccc(S(C)(=O)=O)cc2)c[nH]1` (centres unmarked) [Compound 34, 1-(2-(4-(4-(methylsulfonyl)phenyl)-1H-imidazol-2-yl)piperidin-1-yl)-2-(methylthio)propan-1-one], the pEC50 is 4.46 to 6.00.

Consider `CSC(C)C(=O)N1CCCCC1c1nc(-c2ccc(S(C)(=O)=O)cc2)c[nH]1` (centres unmarked) [Compound 35], for which the pEC50 is 4.46 to 6.00.

As for `CSC(C)C(=O)N1CCCCC1c1nc(-c2ccc(C3CCC3)cc2)c[nH]1` (centres unmarked) [Compound 36, 1-(2-(4-(4-cyclobutylphenyl)-1H-imidazol-2-yl)piperidin-1-yl)-2-(methylthio)propan-1-one], the pEC50 was > 7.30.

As for `CSC(C)C(=O)N1CCCCC1c1nc(-c2ccc(C3CC3)cc2F)c[nH]1` (centres unmarked) [Compound 37, 1-(2-(4-(4-cyclopropyl-2-fluorophenyl)-1H-imidazol-2-yl)piperidin-1-yl)-2-(methylthio)propan-1-one], the pEC50 is > 7.30.

`CSC(C)C(=O)N1CCCCC1c1nc(-c2ccc(F)cc2)c[nH]1` (centres unmarked) [Compound 38, 1-(2-(4-(4-fluorophenyl)-1H-imidazol-2-yl)piperidin-1-yl)-2-(methylthio)propan-1-one]: the pEC50 was > 7.30.

Consider `CSC(C)C(=O)N1CCCCC1c1nc(-c2ccc(O)cc2)c[nH]1` (centres unmarked) [Compound 39, 1-(2-(4-(4-hydroxyphenyl)-1H-imidazol-2-yl)piperidin-1-yl)-2-(methylthio)propan-1-one], for which the negative-log EC50 (pEC50) is > 7.30.

Take `CSC(C)C(=O)N1CCCCC1c1nc(-c2ccc(C(C)C)cc2)c[nH]1` (centres unmarked) [Compound 40, 1-(2-(4-(4-isopropylphenyl)-1H-imidazol-2-yl)piperidin-1-yl)-2-(methylthio)propan-1-one]: the pEC50 is > 7.30.

As for `CSC(C)C(=O)N1CCCCC1c1nc(-c2ccc(C)c(C(F)(F)F)c2)c[nH]1` (centres unmarked) [Compound 41, 1-(2-(4-(4-methyl-3-(trifluoromethyl)phenyl)-1H-imidazol-2-yl)piperidin-1-yl)-2-(methylthio)propan-1-one], the negative logarithm of the EC50 (pEC50) was 6.52 to 7.30.

With `CSC(C)C(=O)N1CCCCC1c1nc(-c2ccc(CN(C)C)s2)c[nH]1` (centres unmarked) [Compound 42, 1-(2-(4-(5-((dimethylamino)methyl)thiophen-2-yl)-1H-imidazol-2-yl)piperidin-1-yl)-2-(methylthio)propan-1-one], the pEC50 was 4.46 to 6.00.

Take `CSC(C)C(=O)N1CCCCC1c1nc(-c2ccc(C)o2)c[nH]1` (centres unmarked) [Compound 43, 1-(2-(4-(5-methylfuran-2-yl)-1H-imidazol-2-yl)piperidin-1-yl)-2-(methylthio)propan-1-one]: the pEC50 is > 7.30.

Regarding `CSC(C)C(=O)N1CCCCC1c1nc(-c2cncc(C)c2)c[nH]1` (centres unmarked) [Compound 44, 1-(2-(4-(5-methylpyridin-3-yl)-1H-imidazol-2-yl)piperidin-1-yl)-2-(methylthio)propan-1-one], the negative-log EC50 (pEC50) was 6.52 to 7.30.

Take `CSC(C)C(=O)N1CCCCC1c1nc(-c2ccc(C)nc2)c[nH]1` (centres unmarked) [Compound 45, 1-(2-(4-(6-methylpyridin-3-yl)-1H-imidazol-2-yl)piperidin-1-yl)-2-(methylthio)propan-1-one]: the pEC50 was > 7.30.

For `CSC(C)C(=O)N1CCCCC1c1nc(-c2ccc3ccsc3c2)c[nH]1` (centres unmarked) [Compound 46, 1-(2-(4-(benzo[b]thiophen-6-yl)-1H-imidazol-2-yl)piperidin-1-yl)-2-(methylthio)propan-1-one], the pEC50 is > 7.30.

`CSC(C)C(=O)N1CCCCC1c1nc(C)c(-c2ccccc2)[nH]1` (centres unmarked) [Compound 47, 1-(2-(4-methyl-5-phenyl-1H-imidazol-2-yl)piperidin-1-yl)-2-(methylthio)propan-1-one]: the pEC50 was 6.52 to 7.30.

Regarding `O=C(CSC(F)(F)F)N1CCCCC1c1nc(-c2ccccc2)c[nH]1` (centres unmarked) [Compound 48, 1-(2-(4-phenyl-1H-imidazol-2-yl)piperidin-1-yl)-2-((trifluoromethyl)thio)ethan-1-one], the pEC50 was 4.46 to 6.00.

For the compound `CCCC(=O)N1CCCCC1c1nc(-c2ccccc2)c[nH]1` (centres unmarked) [Compound 49, 1-(2-(4-phenyl-1H-imidazol-2-yl)piperidin-1-yl)butan-1-one], the negative-log EC50 (pEC50) was 6.00 to 6.52.

For `C=CC=CCC(=O)N1CCCCC1c1nc(-c2ccccc2)c[nH]1` (centres unmarked) [Compound 50, 1-(2-(4-phenyl-1H-imidazol-2-yl)piperidin-1-yl)hexa-3,5-dien-1-one], the pEC50 was 4.46 to 6.00.

For `C=CCCC(=O)N1CCCCC1c1nc(-c2ccccc2)c[nH]1` (centres unmarked) [Compound 51, 1-(2-(4-phenyl-1H-imidazol-2-yl)piperidin-1-yl)pent-4-en-1-one], the negative logarithm of the EC50 (pEC50) was 6.00 to 6.52.

Take `CCC(=O)N1CCCCC1c1nc(-c2ccccc2)c[nH]1` (centres unmarked) [Compound 52, 1-(2-(4-phenyl-1H-imidazol-2-yl)piperidin-1-yl)propan-1-one]: the pEC50 was 4.46 to 6.00.

Consider `CSC(C)C(=O)N1CCCCC1c1ncc(-c2cccc(F)c2F)[nH]1` (centres unmarked) [Compound 53, 1-(2-(5-(2,3-difluorophenyl)-1H-imidazol-2-yl)piperidin-1-yl)-2-(methylthio)propan-1-one], for which the pEC50 is 6.52 to 7.30.

For `CSC(C)C(=O)N1CCCCC1c1ncc(-c2ccc(F)cc2F)[nH]1` (centres unmarked) [Compound 54, 1-(2-(5-(2,4-difluorophenyl)-1H-imidazol-2-yl)piperidin-1-yl)-2-(methylthio)propan-1-one], the pEC50 is > 7.30.

With `CSC(C)C(=O)N1CCCCC1c1ncc(-c2cc(F)ccc2F)[nH]1` (centres unmarked) [Compound 55, 1-(2-(5-(2,5-difluorophenyl)-1H-imidazol-2-yl)piperidin-1-yl)-2-(methylthio)propan-1-one], the pEC50 was > 7.30.

For the compound `COc1ccc(-c2cnc(C3CCCCN3C(=O)C(C)SC)[nH]2)c(F)c1` (centres unmarked) [Compound 56, 1-(2-(5-(2-fluoro-4-methoxyphenyl)-1H-imidazol-2-yl)piperidin-1-yl)-2-(methylthio)propan-1-one], the pEC50 was > 7.30.

Turning to `CSC(C)C(=O)N1CCCCC1c1ncc(-c2ccc(C)cc2F)[nH]1` (centres unmarked) [Compound 57, 1-(2-(5-(2-fluoro-4-methylphenyl)-1H-imidazol-2-yl)piperidin-1-yl)-2-(methylthio)propan-1-one], the pEC50 was > 7.30.

Turning to `COc1ncc(-c2cnc(C3CCCCN3C(=O)C(C)SC)[nH]2)cn1` (centres unmarked) [Compound 58, 1-(2-(5-(2-methoxypyrimidin-5-yl)-1H-imidazol-2-yl)piperidin-1-yl)-2-(methylthio)propan-1-one], the pEC50 was 6.00 to 6.52.

For the compound `CNc1cccc(-c2cnc(C3CCCCN3C(=O)C(C)SC)[nH]2)c1` (centres unmarked) [Compound 59, 1-(2-(5-(3-(methylamino)phenyl)-1H-imidazol-2-yl)piperidin-1-yl)-2-(methylthio)propan-1-one], the pEC50 is 6.52 to 7.30.

As to `CSC(C)C(=O)N1CCCCC1c1ncc(-c2ccc(F)c(F)c2)[nH]1` (centres unmarked) [Compound 60, 1-(2-(5-(3,4-difluorophenyl)-1H-imidazol-2-yl)piperidin-1-yl)-2-(methylthio)propan-1-one], the pEC50 was > 7.30.

For `C=CC(C)C(=O)N1CCCCC1c1ncc(-c2ccc(F)c(F)c2)[nH]1` (centres unmarked) [Compound 61, 1-(2-(5-(3,4-difluorophenyl)-1H-imidazol-2-yl)piperidin-1-yl)-2-methylbut-3-en-1-one], the pEC50 is > 7.30.

Turning to `COc1ccc(-c2cnc(C3CCCCN3C(=O)C(C)SC)[nH]2)cc1OC` (centres unmarked) [Compound 62, 1-(2-(5-(3,4-dimethoxyphenyl)-1H-imidazol-2-yl)piperidin-1-yl)-2-(methylthio)propan-1-one], the pEC50 is 4.46 to 6.00.

With `CSC(C)C(=O)N1CCCCC1c1ncc(-c2ccc(C)c(C)c2)[nH]1` (centres unmarked) [Compound 63, 1-(2-(5-(3,4-dimethylphenyl)-1H-imidazol-2-yl)piperidin-1-yl)-2-(methylthio)propan-1-one], the pEC50 was > 7.30.
